The structures appear in SMILES notation. “And” between values parts separate entries of the source, which are not always exact repeats. Equal entries are not always repeated. Where two headings read alike, the source gives them in different places.

The target in experiment [1] is T1, SFRP-1 (Homo sapiens, UniProt Q8N474).
T1 sequence (Q8N474 32-314): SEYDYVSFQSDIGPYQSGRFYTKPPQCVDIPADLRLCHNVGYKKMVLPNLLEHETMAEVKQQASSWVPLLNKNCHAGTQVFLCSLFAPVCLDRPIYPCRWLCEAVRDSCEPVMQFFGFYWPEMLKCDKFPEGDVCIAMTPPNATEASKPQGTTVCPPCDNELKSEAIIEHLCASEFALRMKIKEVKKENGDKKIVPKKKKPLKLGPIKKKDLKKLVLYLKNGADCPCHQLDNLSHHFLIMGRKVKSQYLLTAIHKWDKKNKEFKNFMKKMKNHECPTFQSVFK
The experiment is described as follows: Fluorescence polarization binding assay (competitive displacement of a probe compound from SFRP-1).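 Also: test compound competes with a fluorescent probe held by SFRP-1, seen as a drop in probe anisotropy after incubation in darkness, with anisotropy as function of rising compound dose.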 The conditions noted are these: fluorescence anisotropy, 45 nM SFRP-1, 20 nM probe. (Polarisation of emitted light reports the rotation of a fluorescent probe.)

The target of experiment [2] is T1, SFRP-1. The experiment is described as follows: Cell-based assay for in vitro measurement of SFRP-1/SARP2 antagonist activity (U2OS cells co-transfected with 16x TCF-tk-Luciferase reporter, Wnt and hSFRP-1).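 Also: U2OS cells co-transfected with a TCF-tk luciferase reporter, a Wnt vector, hSFRP-1 or empty vector and CMV-βgal, luciferase luminescence read in cell lysates alongside βgal activity.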 To be noted: U2OS, single dose, luciferase reporter.
The mark [3] stands for this setting: read-out: Fold Induction with SFRP-1, Conc 15 μM, fold induction over SFRP-1 control, cells with SFRP-1.
Setting [4] is: read-out: Fold Induction without SFRP-1, Conc 15 μM, cells without SFRP-1 (specificity control).

What is called IC50 is the concentration needed to halve the response being measured. Higher therefore signals weaker potency in that assay. `CC(C)c1ccc([S+]([O-])c2ccccc2)cc1S(=O)(=O)NCCc1ccccn1` (stereo not drawn) [Example 575, 2-isopropyl-5-(phenylsulfinyl)-N-(2-pyridin-2-ylethyl)benzenesulfonamide] came in with a half-inhibitory concentration (IC50) on SFRP-1 [1] of 1800 nM. Further, the fold induction at 15 µM amounted to 2.6 on SFRP-1 [2] (setting [3]) and 1.1 at SFRP-1 [2] (setting [4]).
The like results for `Cc1c(Br)cccc1S(=O)(=O)c1ccc(C(C)C)c(S(=O)(=O)NCCc2ccccn2)c1` [Example 577, 5-[(3-bromo-2-methylphenyl)sulfonyl]-2-isopropyl-N-(2-pyridin-2-ylethyl)benzenesulfonamide] were, in that order, 700 nM, 1.9 and 1.2.
The compound `Cc1cccc(Cl)c1S(=O)(=O)c1ccc(C(C)C)c(S(=O)(=O)NCCc2ccccn2)c1` [Example 578, 5-[(2-chloro-6-methylphenyl)sulfonyl]-2-isopropyl-N-(2-pyridin-2-ylethyl)benzenesulfonamide] had an IC50 at SFRP-1 [1] of 600 nM. Further, the fold induction at 15 µM was found to be 2.8 on SFRP-1 [2] (setting [3]) and 1.2 at SFRP-1 [2] (setting [4]).
Compound `Cc1cccc(S(=O)(=O)c2ccc(C(C)C)c(S(=O)(=O)NCCc3ccccn3)c2)c1` [Example 579, 2-isopropyl-5-[(3-methylphenyl)sulfonyl]-N-(2-pyridin-2-ylethyl)benzenesulfonamide] had an IC50 at SFRP-1 [1] of 600 nM. The fold induction at 15 µM on SFRP-1 [2] (setting [3]) is 3.4; on SFRP-1 [2] (setting [4]), 1.
Take `CC(C)c1ccc(S(=O)(=O)c2ccc(N(C)CCC#N)cc2)cc1S(=O)(=O)NC1CCOCC1` [Example 580, 5-({4-[(2-cyanoethyl)(methyl)amino]phenyl}sulfonyl)-2-isopropyl-N-(tetrahydro-2H-pyran-4-yl)benzenesulfonamide]: on SFRP-1 [1], the half-inhibitory concentration (IC50) came to 700 nM. Moreover, the fold induction at 15 µM came out at 2.8 on SFRP-1 [2] (setting [3]) and 1.3 at SFRP-1 [2] (setting [4]).
For the compound `CC(C)c1ccc(S(=O)(=O)c2ccc(N(C)CCC#N)cc2)cc1S(=O)(=O)NCC1CCOCC1` [Example 581, 5-({4-[(2-cyanoethyl)(methyl)amino]phenyl}sulfonyl)-2-isopropyl-N-(tetrahydro-2H-pyran-4-ylmethyl)benzenesulfonamide], the IC50 on SFRP-1 [1] amounted to 1000 nM. Further, the fold induction at 15 µM at SFRP-1 [2] (setting [3]) is 2.2; at SFRP-1 [2] (setting [4]), 1.3.
On SFRP-1 [1], `Cc1nccn1CCNS(=O)(=O)c1cc(S(=O)(=O)c2ccc(F)cc2)ccc1C(C)C` [Example 583, 5-[(4-fluorophenyl)sulfonyl]-2-isopropyl-N-[2-(2-methyl-1H-imidazol-1-yl)ethyl]benzenesulfonamide] displayed an IC50 of 300 nM. The fold induction at 15 µM came to 3.9 on SFRP-1 [2] (setting [3]) and 1.1 at SFRP-1 [2] (setting [4]).
For `CCc1nccn1CCNS(=O)(=O)c1cc(S(=O)(=O)c2ccc(F)cc2)ccc1C(C)C` [Example 584, N-[2-(2-ethyl-1H-imidazol-1-yl)ethyl]-5-[(4-fluorophenyl)sulfonyl]-2-isopropylbenzenesulfonamide], on SFRP-1 [1], the IC50 was found to be 500 nM. Moreover, the fold induction at 15 µM on SFRP-1 [2] (setting [3]) turned out to be 3.4; on SFRP-1 [2] (setting [4]), 1.1.
Regarding `CC(=O)N1CCC(NS(=O)(=O)c2cc(S(=O)(=O)c3ccc(F)cc3)ccc2C)CC1` [Example 585, N-(1-acetylpiperidin-4-yl)-5-[(4-fluorophenyl)sulfonyl]-2-methylbenzenesulfonamide], at SFRP-1 [1], the IC50 is 8000 nM. The values for the fold induction at 15 µM at SFRP-1 [2] (setting [3]) and at SFRP-1 [2] (setting [4]) were 2.7 and 1.1, respectively.
At SFRP-1 [1], `Cc1ccc(S(=O)(=O)c2ccc(F)cc2)cc1S(=O)(=O)NC1CCN(C(=O)c2ccc(C#N)cc2)CC1` [Example 586, N-[1-(4-cyanobenzoyl)piperidin-4-yl]-5-[(4-fluorophenyl)sulfonyl]-2-methylbenzenesulfonamide] returned an IC50 of 2400 nM. The fold induction at 15 µM on SFRP-1 [2] (setting [3]) is 1.9; at SFRP-1 [2] (setting [4]) it was 1.1.
For `Cc1ccc(S(=O)(=O)c2ccc(F)cc2)cc1S(=O)(=O)NC1CCN(C(=O)N(C)C)CC1` [Example 587, 4-[({5-[(4-fluorophenyl)sulfonyl]-2-methylphenyl}sulfonyl)amino]-N,N-dimethylpiperidine-1-carboxamide], at SFRP-1 [1], the IC50 stood at 5000 nM. Further, the fold induction at 15 µM on SFRP-1 [2] (setting [3]) and on SFRP-1 [2] (setting [4]) was 1.2 in each case.
Compound `CC(C)c1ccc(S(=O)(=O)c2ccc(F)cc2)cc1S(=O)(=O)NCCn1ccnc1C(C)C` [Example 588, 5-[(4-fluorophenyl)sulfonyl]-2-isopropyl-N-[2-(2-isopropyl-1H-imidazol-1-yl)ethyl]benzenesulfonamide] yielded an IC50 on SFRP-1 [1] of 400 nM. For the same compound, the fold induction at 15 µM at SFRP-1 [2] (setting [3]) turned out to be 3.6; on SFRP-1 [2] (setting [4]), 1.7.
On SFRP-1 [1], `COCC(=O)N1CCC(NS(=O)(=O)c2cc(S(=O)(=O)c3ccc(F)cc3)ccc2C)CC1` [Example 589, 5-[(4-fluorophenyl)sulfonyl]-N-[1-(methoxyacetyl)piperidin-4-yl]-2-methylbenzenesulfonamide] showed an IC50 of 4000 nM. In addition, the fold induction at 15 µM on SFRP-1 [2] (setting [3]) was found to be 2.6; on SFRP-1 [2] (setting [4]), 1.3.
`CC(C)c1ccc([S@+]([O-])c2ccccc2)cc1S(=O)(=O)NCCc1ccccn1` [Example 590, 2-isopropyl-5-[(R)-phenylsulfinyl]-N-(2-pyridin-2-ylethyl)benzenesulfonamide]: on SFRP-1 [1], the IC50 is 2000 nM and 2500 nM. The fold induction at 15 µM on SFRP-1 [2] (setting [3]) amounted to 2.9; at SFRP-1 [2] (setting [4]), 1.
In the case of `CC(C)c1ccc([S@@+]([O-])c2ccccc2)cc1S(=O)(=O)NCCc1ccccn1` [Example 591, 2-isopropyl-5-[(S)-phenylsulfinyl]-N-(2-pyridin-2-ylethyl)benzenesulfonamide], the IC50 at SFRP-1 [1] is 5000 nM and 6000 nM. In addition, the fold induction at 15 µM came to 3.1 at SFRP-1 [2] (setting [3]) and 1.3 at SFRP-1 [2] (setting [4]).
At SFRP-1 [1], `O=S(=O)(NCCc1ccccn1)c1cc(S(=O)(=O)c2ccccc2)ccc1Br` [Example 592, 2-bromo-5-(phenylsulfonyl)-N-(2-pyridin-2-ylethyl)benzenesulfonamide] came in with an IC50 of 1000 nM. Besides, the results for the fold induction at 15 µM at SFRP-1 [2] (setting [3]) and at SFRP-1 [2] (setting [4]) were 3.1 and 1.1, respectively.
`Cc1c(C#N)cccc1S(=O)(=O)c1ccc(C(C)C)c(S(=O)(=O)NCCc2ccccn2)c1` [Example 593, 5-[(3-cyano-2-methylphenyl)sulfonyl]-2-isopropyl-N-(2-pyridin-2-ylethyl)benzenesulfonamide] displayed an IC50 at SFRP-1 [1] of 900 nM. The fold induction at 15 µM at SFRP-1 [2] (setting [3]) is 2; on SFRP-1 [2] (setting [4]) it was 1.1.
Take `CC(=O)c1cccc(S(=O)(=O)c2ccc(C(C)C)c(S(=O)(=O)NCCc3ccccn3)c2)c1C` [Example 594, 5-[(3-acetyl-2-methylphenyl)sulfonyl]-2-isopropyl-N-(2-pyridin-2-ylethyl)benzenesulfonamide]: the IC50 at SFRP-1 [1] amounted to 4000 nM. For the same compound, the fold induction at 15 µM on SFRP-1 [2] (setting [3]) came out at 2.3; at SFRP-1 [2] (setting [4]), 1.
Consider `CC(C)c1ccc(S(=O)(=O)c2ccc(F)c(Cl)c2)cc1S(=O)(=O)NCCc1ccccn1` [Example 595, 5-[(3-chloro-4-fluorophenyl)sulfonyl]-2-isopropyl-N-(2-pyridin-2-ylethyl)benzenesulfonamide], for which the IC50 on SFRP-1 [1] came to 1200 nM. The fold induction at 15 µM at SFRP-1 [2] (setting [3]) turned out to be 3.4; at SFRP-1 [2] (setting [4]) it was 1.4.
The like results for `Cc1cc(F)ccc1S(=O)(=O)c1ccc(C(C)C)c(S(=O)(=O)NCCc2ccccn2)c1` [Example 596, 5-[(4-fluoro-2-methylphenyl)sulfonyl]-2-isopropyl-N-(2-pyridin-2-ylethyl)benzenesulfonamide] were, in that order, 1600 nM, 4.2 and 1.3.
At SFRP-1 [1], `CC(C)c1ccc(S(=O)(=O)c2ccc3c(ccn3C)c2)cc1S(=O)(=O)NCCc1ccccn1` [Example 597, 2-isopropyl-5-[(1-methyl-1H-indol-5-yl)sulfonyl]-N-(2-pyridin-2-ylethyl)benzenesulfonamide] registered an IC50 of 400 nM. Moreover, the fold induction at 15 µM at SFRP-1 [2] (setting [3]) was determined as 3.7; on SFRP-1 [2] (setting [4]), 1.3.
`COc1cccc(S(=O)(=O)c2ccc(C(C)C)c(S(=O)(=O)NC3CCOCC3)c2)c1` [Example 598, 2-isopropyl-5-[(3-methoxyphenyl)sulfonyl]-N-(tetrahydro-2H-pyran-4-yl)benzenesulfonamide] registered an IC50 at SFRP-1 [1] of 900 nM. Also, the fold induction at 15 µM on SFRP-1 [2] (setting [3]) stood at 3.6; on SFRP-1 [2] (setting [4]), 1.4.
For `CNc1ccc(S(=O)(=O)c2ccc(C(C)C)c(S(=O)(=O)NCCc3ccccn3)c2)c(C)c1` [Example 599, 2-isopropyl-5-{[2-methyl-4-(methylamino)phenyl]sulfonyl}-N-(2-pyridin-2-ylethyl)benzenesulfonamide], on SFRP-1 [1], the IC50 stood at 600 nM. The fold induction at 15 µM at SFRP-1 [2] (setting [3]) was 4.2; on SFRP-1 [2] (setting [4]) it was 1.4.
For `Cc1cc(N(C)C)ccc1S(=O)(=O)c1ccc(C(C)C)c(S(=O)(=O)NCCc2ccccn2)c1` [Example 600, 5-{[4-(dimethylamino)-2-methylphenyl]sulfonyl}-2-isopropyl-N-(2-pyridin-2-ylethyl)benzenesulfonamide], at SFRP-1 [1], the IC50 was found to be 2000 nM. Also, the fold induction at 15 µM amounted to 3 at SFRP-1 [2] (setting [3]) and 1.1 on SFRP-1 [2] (setting [4]).

(Values after US20060276464A1, “Diarylsulfone sulfonamides and use thereof” (Wyeth, priority 2005, published 2006).)
